Assay results as given in PMC3841161, “De Novo Design and Synthesis of Ultra-Short Peptidomimetic Antibiotics Having Dual Antimicrobial and Anti-Inflammatory Activities” (PLoS ONE, 2013).
Residues, ends and D or L forms follow the SMILES beside them. No end group written: not given here.

What was measured:
trypsin = assay: Protease stability by RP HPLC; format: in vitro ADME; details: 5 µL of 10 mg/mL peptide in 25 µL of 0.2-µg/mL trypsin in PBS, 37°C, 0, 0.5, 1.0, 2.0 and 4 h; C18 RP-HPLC, 224 nm
Protocol: Five microliters of an aqueous peptide stock solution (10 mg/mL) were added to 25 µL of the 0.2-µg/mL trypsin solution in PBS, respectively, and incubated at 37°C for 0, 0.5, 1.0, 2.0, and 4 h. The 5-µL solution was taken out at each time interval and immediately frozen with liquid nitrogen. Individually thawed samples were loaded onto a C18 reverse-phase column for HPLC analysis (5 µm; 4.6 mm ×250 mm; Vydac). Peptides were eluted by a 60-min linear gradient of 0–90% (v/v) acetonitrile in water containing 0.05% (v/v) trifluoroacetic acid with a flow rate of 1 mL/min and detection of 224 nm.

MRSA 3 [CCARM 3095] = format: cell-based, methicillin-resistant Staphylococcus aureus; details: CCARM 3095, 20 h
Protocol: (§1) The antimicrobial activity of the peptides against two Gram-positive bacterial strains and two Gram-negative bacterial strains was examined using the broth microdilution method in sterile 96-well plates. Aliquots (100 µL) of a bacterial suspension at 2×10^6 colony-forming units (CFU)/mL in 1% peptone were added to 100 µL of the peptide solution (serial two-fold dilutions in 1% peptone). After incubation for 18−20 h at 37°C, bacterial growth inhibition was determined by measuring the absorbance at 600 nm with a Microplate Autoreader EL 800 (Bio-Tek Instruments, VT). The minimal inhibitory concentration (MIC) was defined as the minimum peptide concentration inhibited bacteria growth. Two types of Gram-positive bacteria (S. epidermidis [KCTC 1917] and S. aureus [KCTC 1621]) and two types of Gram-negative bacteria (E. coli [KCTC 1682] and P. aeruginosa [KCTC 1637]) were procured from the Korean Collection for Type Cultures (KCTC) at the Korea Research Institute of Bioscience and Biotechnology (KRIBB). MRSA samples (CCARM 3089, CCARM 3090, and CCARM 3095) were obtained from the Culture Collection of Antibiotic-Resistant Microbes (CCARM) at Seoul Women's University (Seoul, Korea).

MRSA 2 [CCARM 3090] = format: cell-based, methicillin-resistant Staphylococcus aureus; details: CCARM 3090, 20 h
Protocol: as §1

MRSA 1 [CCARM 3089] = format: cell-based, methicillin-resistant Staphylococcus aureus; details: CCARM 3089, 20 h
Protocol: as §1

S. aureus [KCTC 1621] = format: cell-based, Staphylococcus aureus; details: KCTC 1621, 20 h
Protocol: as §1

E. coli [KCTC 1682] = format: cell-based, Escherichia coli; details: KCTC 1682, 20 h
Protocol: as §1

[1] = system: hRBCs versus four bacterial strains; assay: Prokaryotic selectivity (therapeutic index, HC10/GM); details: ratio of HC10 to GM; 512 µg/mL used for HC10 >256 and 128 µg/mL for MIC >64
Protocol: (§2) The prokaryotic selectivity of our designed HDAMPs is defined by the therapeutic index (TI) as a measure of the relative safety of the drug. It is a measure of a peptide's capability to differentiate any pathogen from a host cell. The TI value of each peptide was calculated as the ratio of the HC10 (the peptide concentration that produces 10% hemolysis toward hRBCs) to the geometric mean [GM; the geometric mean of the minimal inhibitory concentration (MIC) against four selected bacterial strains]. Larger values of TI correspond to greater prokaryotic selectivity.

[2] = system: P. aeruginosa [KCTC 1637]; format: cell-based, Pseudomonas aeruginosa; details: KCTC 1637, 20 h
Protocol: as §1

[3] = system: four bacterial strains (E. coli, P. aeruginosa, S. epidermidis, S. aureus); format: cell-based; details: 20 h
Protocol: as §2, §1

[4] = system: S. epidermidis [KCTC 1917]; format: cell-based, Staphylococcus epidermidis; details: KCTC 1917, 20 h
Protocol: as §1

| Compound | resistance to proteolysis by trypsin, remaining peptide by RP-HPLC (in words) (trypsin) | Minimal Inhibitory Concentration (MIC) MRSA 3 [CCARM 3095] (MRSA 3 [CCARM 3095]) | Minimal Inhibitory Concentration (MIC) MRSA 2 [CCARM 3090] (MRSA 2 [CCARM 3090]) | Minimal Inhibitory Concentration (MIC) MRSA 1 [CCARM 3089] (MRSA 1 [CCARM 3089]) | Minimal Inhibitory Concentration (MIC) S. aureus [KCTC 1621] (S. aureus [KCTC 1621]) | Minimal Inhibitory Concentration (MIC) E. coli [KCTC 1682] (E. coli [KCTC 1682]) | TI (HC10/GM), therapeutic index [1] | Minimal Inhibitory Concentration (MIC) P. aeruginosa [KCTC 1637] [2] | GM, geometric mean of the MIC values against four bacterial strains [3] | Minimal Inhibitory Concentration (MIC) S. epidermidis [KCTC 1917] [4] |
| --- | --- | --- | --- | --- | --- | --- | --- | --- | --- | --- |
| N=C(N)NCCC[C@H](NC(=O)[C@H](Cc1c[n+](CCCCCCCc2ccccc2)cn1CCCCCCCc1ccccc1)NC(=O)[C@@H](N)CCCNC(=N)N)C(N)=O [HDAMP-1, Arg-His((CH2)7C6H5)2-Arg-NH2] | fully resistant | 2 (2.5) µg/mL | 2 (2.5) µg/mL | 2 (2.5) µg/mL | 4 (4.9) µg/mL | 4 (4.9) µg/mL | 10.3 | 4 (4.9) µg/mL | 3.5 (4.3) µg/mL | 2 (2.5) µg/mL |
| N=C(N)NCCC[C@@H](N)C(=O)N[C@@H](Cc1c[n+](CCCCCCCc2ccccc2)cn1CCCCCCCc1ccccc1)C(=O)N[C@H](CCCNC(=N)N)C(N)=O [HDAMP-5] | fully resistant | 8 (9.8) µg/mL | 8 (9.8) µg/mL | 8 (9.8) µg/mL | 8 (9.8) µg/mL | 16 (19.6) µg/mL | 10.8 | 16 (19.6) µg/mL | 12.0 (14.7) µg/mL | 8 (9.8) µg/mL |
| WRWRWR-NH2 [(WR)3-NH2, reference compound] |  |  |  |  | 8 (7.7) µg/mL | 4 (3.8) µg/mL | 56.9 | 16 (15.3) µg/mL | 9 (8.6) µg/mL | 8 (7.7) µg/mL |
| N=C(N)NCCC[C@H](NC(=O)[C@H](Cc1cncn1CCCCCCCc1ccccc1)NC(=O)[C@@H](N)CCCNC(=N)N)C(N)=O [HDAMP-4] |  | 16 (24.9) µg/mL | 16 (24.9) µg/mL | 16 (24.9) µg/mL | 4 (6.2) µg/mL | 32 (49.9) µg/mL | 29.3 | 32 (49.9) µg/mL | 17.5 (27.3) µg/mL | 2 (3.1) µg/mL |
| N=C(N)NCCC[C@H](NC(=O)[C@H](Cc1c[n+](CCCc2ccccc2)cn1CCCc1ccccc1)NC(=O)[C@@H](N)CCCNC(=N)N)C(N)=O [HDAMP-2] |  | 16 (22.7) µg/mL | 32 (45.5) µg/mL | 16 (22.7) µg/mL | 8 (11.4) µg/mL | 4 (5.7) µg/mL | 56.9 | 16 (22.7) µg/mL | 9 (12.8) µg/mL | 8 (11.4) µg/mL |
| N=C(N)NCCC[C@H](NC(=O)[C@H](Cc1c[nH]c2ccccc12)NC(=O)[C@@H](N)CCCNC(=N)N)C(N)=O [RWR-NH2, reference compound] (H-Arg-Trp-Arg-NH2) |  |  |  |  | >64 (>124) µg/mL | >64 (>124) µg/mL |  | >64 (>124) µg/mL | >64 (>124) µg/mL | >64 (>124) µg/mL |
